Drawing on ChEMBL document CHEMBL4376804, “Review of Transient Receptor Potential Canonical (TRPC5) Channel Modulators and Diseases” (J Med Chem, 2019), this text covers IC50 and Ratio IC50 for five compounds.

Assay [1] has as its target T1, Short transient receptor potential channel 6 (Homo sapiens, UniProt Q9Y210).
T1 sequence (Q9Y210 whole entry): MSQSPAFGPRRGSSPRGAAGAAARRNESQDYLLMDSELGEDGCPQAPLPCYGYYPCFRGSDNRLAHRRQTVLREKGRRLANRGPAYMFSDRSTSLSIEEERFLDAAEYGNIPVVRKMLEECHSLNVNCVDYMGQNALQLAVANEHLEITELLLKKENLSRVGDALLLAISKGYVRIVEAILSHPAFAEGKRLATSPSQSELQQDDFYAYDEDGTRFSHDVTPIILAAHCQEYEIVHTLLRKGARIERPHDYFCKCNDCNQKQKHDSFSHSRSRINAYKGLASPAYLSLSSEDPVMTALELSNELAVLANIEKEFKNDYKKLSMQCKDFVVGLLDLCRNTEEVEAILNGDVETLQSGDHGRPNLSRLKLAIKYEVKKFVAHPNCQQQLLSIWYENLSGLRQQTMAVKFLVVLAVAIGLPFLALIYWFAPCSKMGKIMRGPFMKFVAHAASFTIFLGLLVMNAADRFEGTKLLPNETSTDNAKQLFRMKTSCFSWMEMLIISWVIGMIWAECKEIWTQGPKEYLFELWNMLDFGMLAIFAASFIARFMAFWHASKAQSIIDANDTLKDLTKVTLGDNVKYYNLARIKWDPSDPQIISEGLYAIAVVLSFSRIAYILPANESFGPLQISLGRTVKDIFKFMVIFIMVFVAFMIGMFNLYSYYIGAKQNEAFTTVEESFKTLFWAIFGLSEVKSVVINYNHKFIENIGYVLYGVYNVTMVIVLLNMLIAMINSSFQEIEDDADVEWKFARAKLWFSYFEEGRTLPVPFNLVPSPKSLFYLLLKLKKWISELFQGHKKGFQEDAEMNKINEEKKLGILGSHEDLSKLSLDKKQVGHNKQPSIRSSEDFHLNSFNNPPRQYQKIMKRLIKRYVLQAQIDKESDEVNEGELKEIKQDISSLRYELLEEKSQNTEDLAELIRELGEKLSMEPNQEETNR
In words: Inhibition of human TRPC6 expressed in HEK293 cells assessed as reduction in OAG-induced calcium influx preincubated for 2 mins followed by OAG stimulation by fluo-4/AM dye based FLIPR assay. Type of assay: cell-based.

Another assay addresses TRPC6. In words: Inhibition of TRPC6 expressed in HEK293 cells coexpressing M5 receptor assessed as reduction in TRPC6-mediated calcium influx by fluorescence method.
For the next assay, the target named is TRPC4/TRPC1 (Homo sapiens, UniProt P48995+Q9UBN4). Description: Antagonist activity at TRPC4/TRPC1 in human A498 cells assessed as reduction in englerin A-induced calcium entry preincubated for 30 mins followed by englerin A addition by fluorescence method. The class given is cell-based.
Sequence of TRPC4/TRPC1 (Q9UBN4 whole entry): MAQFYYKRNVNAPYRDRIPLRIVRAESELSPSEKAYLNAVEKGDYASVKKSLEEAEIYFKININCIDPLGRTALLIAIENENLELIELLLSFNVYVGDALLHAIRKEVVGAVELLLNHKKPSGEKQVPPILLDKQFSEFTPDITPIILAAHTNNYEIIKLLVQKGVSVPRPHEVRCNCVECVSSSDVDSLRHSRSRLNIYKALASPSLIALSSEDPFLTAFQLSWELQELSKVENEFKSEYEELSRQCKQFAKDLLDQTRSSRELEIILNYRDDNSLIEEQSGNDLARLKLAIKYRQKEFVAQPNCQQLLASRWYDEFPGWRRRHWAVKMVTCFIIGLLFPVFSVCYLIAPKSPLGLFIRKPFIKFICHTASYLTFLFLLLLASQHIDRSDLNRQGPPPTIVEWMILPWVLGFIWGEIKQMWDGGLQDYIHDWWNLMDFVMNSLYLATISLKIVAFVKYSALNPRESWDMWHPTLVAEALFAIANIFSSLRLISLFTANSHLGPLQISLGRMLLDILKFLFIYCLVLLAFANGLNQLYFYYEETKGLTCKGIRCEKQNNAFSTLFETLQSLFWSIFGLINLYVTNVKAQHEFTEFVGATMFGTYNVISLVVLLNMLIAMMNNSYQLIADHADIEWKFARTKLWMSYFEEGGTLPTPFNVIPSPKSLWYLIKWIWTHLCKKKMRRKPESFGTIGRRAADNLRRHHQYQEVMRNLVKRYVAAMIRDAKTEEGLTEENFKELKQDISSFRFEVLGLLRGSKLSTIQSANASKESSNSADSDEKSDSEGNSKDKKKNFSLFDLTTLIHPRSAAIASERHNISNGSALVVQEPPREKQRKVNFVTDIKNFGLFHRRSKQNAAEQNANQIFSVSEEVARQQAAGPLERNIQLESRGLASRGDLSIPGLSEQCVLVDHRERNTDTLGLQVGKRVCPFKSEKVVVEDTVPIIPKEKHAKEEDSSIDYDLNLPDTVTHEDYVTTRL
Sequence of TRPC4/TRPC1 (P48995 whole entry): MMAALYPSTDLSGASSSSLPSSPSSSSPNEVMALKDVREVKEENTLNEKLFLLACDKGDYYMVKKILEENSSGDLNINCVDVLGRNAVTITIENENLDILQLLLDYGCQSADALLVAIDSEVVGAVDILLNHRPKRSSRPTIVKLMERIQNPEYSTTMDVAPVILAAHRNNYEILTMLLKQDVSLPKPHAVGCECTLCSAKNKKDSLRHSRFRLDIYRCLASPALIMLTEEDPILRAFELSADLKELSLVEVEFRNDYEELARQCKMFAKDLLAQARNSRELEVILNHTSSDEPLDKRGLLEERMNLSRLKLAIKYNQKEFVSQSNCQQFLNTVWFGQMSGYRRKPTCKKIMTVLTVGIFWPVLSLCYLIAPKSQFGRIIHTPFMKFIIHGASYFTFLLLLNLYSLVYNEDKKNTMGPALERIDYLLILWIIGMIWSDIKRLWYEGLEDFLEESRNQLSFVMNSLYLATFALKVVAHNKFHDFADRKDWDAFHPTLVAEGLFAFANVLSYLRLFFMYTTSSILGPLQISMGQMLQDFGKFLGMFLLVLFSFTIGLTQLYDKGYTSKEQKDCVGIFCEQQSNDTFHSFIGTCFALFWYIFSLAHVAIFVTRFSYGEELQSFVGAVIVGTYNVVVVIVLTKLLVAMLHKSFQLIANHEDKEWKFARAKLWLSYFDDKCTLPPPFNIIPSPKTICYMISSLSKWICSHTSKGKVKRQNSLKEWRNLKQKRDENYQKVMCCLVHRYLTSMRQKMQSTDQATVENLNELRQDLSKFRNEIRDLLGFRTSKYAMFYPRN
Assay [2] addresses T2, Short transient receptor potential channel 3 (Homo sapiens, UniProt Q13507).
T2 sequence (Q13507 whole entry): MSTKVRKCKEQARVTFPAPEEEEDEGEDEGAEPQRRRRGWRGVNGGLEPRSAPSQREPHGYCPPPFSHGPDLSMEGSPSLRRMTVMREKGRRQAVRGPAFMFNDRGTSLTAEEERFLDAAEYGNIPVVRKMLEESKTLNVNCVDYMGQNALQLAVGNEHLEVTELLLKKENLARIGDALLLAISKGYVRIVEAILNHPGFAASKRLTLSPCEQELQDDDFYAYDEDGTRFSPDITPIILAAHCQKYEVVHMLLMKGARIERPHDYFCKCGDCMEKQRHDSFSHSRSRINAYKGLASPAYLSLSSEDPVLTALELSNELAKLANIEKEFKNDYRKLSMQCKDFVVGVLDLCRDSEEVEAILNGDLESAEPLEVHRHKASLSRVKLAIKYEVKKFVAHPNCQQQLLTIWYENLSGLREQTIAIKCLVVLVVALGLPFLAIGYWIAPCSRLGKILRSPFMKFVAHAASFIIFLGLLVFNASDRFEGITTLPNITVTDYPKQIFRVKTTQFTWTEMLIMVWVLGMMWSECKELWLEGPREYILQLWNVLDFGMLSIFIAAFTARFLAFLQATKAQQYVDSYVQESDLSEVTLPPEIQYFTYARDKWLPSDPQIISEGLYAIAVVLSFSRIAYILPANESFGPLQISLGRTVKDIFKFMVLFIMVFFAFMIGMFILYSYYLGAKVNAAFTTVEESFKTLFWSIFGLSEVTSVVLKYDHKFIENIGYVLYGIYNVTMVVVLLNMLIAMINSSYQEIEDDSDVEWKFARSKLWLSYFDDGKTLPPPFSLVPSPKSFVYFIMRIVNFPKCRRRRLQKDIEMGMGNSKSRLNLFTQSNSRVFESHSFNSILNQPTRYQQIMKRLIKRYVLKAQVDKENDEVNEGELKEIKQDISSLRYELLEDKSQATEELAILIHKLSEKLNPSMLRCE
In words: Inhibition of YFP-tagged TRPC3 (unknown origin) expressed in HEK293 cells assessed as reduction carbhocol-induced receptor operated Calcium influx after 5 mins by fura-2-AM dye based assay. Type of assay: cell-based.

The target of another assay is ORAI1/STIM1 (Rattus norvegicus, UniProt P84903+Q5M848). Description: Inhibition of ORAI/STIM1 in thapsigargin treated rat RBL2H3 cells assessed as reduction in store-operated calcium entry after 5 mins by fura-2-AM dye based assay. The class given is cell-based.
Sequence of ORAI1/STIM1 (P84903 whole entry): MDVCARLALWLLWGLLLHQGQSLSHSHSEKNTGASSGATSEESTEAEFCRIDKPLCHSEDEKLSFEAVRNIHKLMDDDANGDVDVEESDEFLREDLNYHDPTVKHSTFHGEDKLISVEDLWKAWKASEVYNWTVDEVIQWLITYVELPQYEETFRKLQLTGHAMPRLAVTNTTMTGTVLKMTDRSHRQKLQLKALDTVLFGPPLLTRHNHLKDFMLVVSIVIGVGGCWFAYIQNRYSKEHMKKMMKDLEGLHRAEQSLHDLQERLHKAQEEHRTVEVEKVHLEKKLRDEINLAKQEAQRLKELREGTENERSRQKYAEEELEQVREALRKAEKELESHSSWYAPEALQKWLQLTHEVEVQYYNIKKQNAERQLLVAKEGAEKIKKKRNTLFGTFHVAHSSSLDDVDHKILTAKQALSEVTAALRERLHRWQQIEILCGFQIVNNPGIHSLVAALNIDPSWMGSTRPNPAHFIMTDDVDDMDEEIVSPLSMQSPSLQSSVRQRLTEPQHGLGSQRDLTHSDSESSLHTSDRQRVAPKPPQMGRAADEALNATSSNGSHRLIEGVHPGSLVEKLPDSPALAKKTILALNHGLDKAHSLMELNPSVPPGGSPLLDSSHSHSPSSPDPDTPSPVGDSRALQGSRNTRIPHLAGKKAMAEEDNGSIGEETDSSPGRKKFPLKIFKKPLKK
Sequence of ORAI1/STIM1 (Q5M848 whole entry): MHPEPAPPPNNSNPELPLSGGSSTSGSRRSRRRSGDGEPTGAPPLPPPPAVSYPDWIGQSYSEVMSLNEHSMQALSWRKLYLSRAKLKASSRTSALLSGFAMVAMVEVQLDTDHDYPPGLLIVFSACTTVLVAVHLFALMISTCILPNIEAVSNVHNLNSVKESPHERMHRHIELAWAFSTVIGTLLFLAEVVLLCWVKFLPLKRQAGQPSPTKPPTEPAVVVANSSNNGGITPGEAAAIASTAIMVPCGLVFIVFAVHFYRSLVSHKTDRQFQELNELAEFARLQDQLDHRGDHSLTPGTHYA
Assay [3] is described as follows: Selectivity ratio of ORAI/STIM1 in thapsigargin treated rat RBL2H3 cells to YFP-tagged TRPC3 (unknown origin) expressed in HEK293 cells. The class given is cell-based.

What is called IC50 is the concentration that inhibits the measured activity by half. Consider `C=C[C@](C)(O)CC[C@H]1C(=C)C[C@H](OC(N)=O)[C@H]2C(C)(C)CCC[C@]12C`, for which the IC50 in assay [1] was 170 nM.
As to `Cc1nn2c(O)cc(C3CCN(C(=O)OC(C)(C)C)CC3)nc2c1-c1ccc(F)cc1`, the IC50 on TRPC6 is 8400 nM.
With `C=C[C@@](C)(CC[C@H]1C(=C)C[C@H](OC(N)=O)[C@H]2C(C)(C)CCC[C@]12C)OC(C)=O`, the IC50 in assay [1] came out at 250 nM.
As to `CC(C)[C@]12C[C@@H](OCCO)[C@](C)(O1)[C@@H]1CC[C@@H](C)[C@H]1[C@@H]2OC(=O)/C=C/c1ccccc1`, at TRPC4/TRPC1, the IC50 came out at 62 nM.
Consider `O=C(Nc1ccc(-n2nc(C(F)(F)F)cc2C(F)(F)F)cc1)c1ccncc1F`, for which the IC50 is 18500 nM in assay [2] and 490 nM on ORAI1/STIM1. Moreover, in assay [3], the Ratio IC50 worked out at 37.
